In US11952328B2, “Selective ship inhibitors for treating disease” (THE RESEARCH FOUNDATION FOR THE STATE UNIVERSITY OF NEW YORK, priority 2018, dated 2024):

Assays:
[1] = system: RMA-Rael cells; experiment: Overall survival of RMA-Rael tumor challenged hosts (Kaplan-Meier); type: in vivo, mice; conditions: C57BL/6 hosts, 1×10^5 RMA-Rael
Protocol: FIGS. 6A-6I show the survival of tumor bearing mice treated with a SHIP inhibitor. […] Hosts were treated on the day of tumor challenge and the following day as in FIG. 1. The 2-day treatment course was repeated each week for the duration of survival. […] Mice received either NK cell depleting, anti-NK1.1 antibody (PK136), or isotype control antibody prior to tumor challenge (5×10^5 RMA-Rael). The hosts received SHIP inhibitor two consecutive days each week until death. […] The hosts were treated on the day of tumor challenge and the following day as in FIG. 1. The 2-day treatment course was repeated each week for the duration of survival.
The most clinically relevant endpoint in any cancer therapy study is not a measured decrease in tumor burden, but instead, a significant increase in survival promoted by the treatment.
In order to further define 3AC′s capacity to control malignancy through immunomodulatory effects the capacity of 3AC to promote resistance of NSG, TcRa^−/− and NK cell depleted hosts to RMA-Rael tumor challenge was examined. As before, mice received treatment with 3AC or vehicle for two consecutive days each week followed by a five-day cessation of treatment to prevent disarming and/or exhaustion. This treatment strategy was continued indefinitely and survival was monitored (FIG. 6A). To confirm that, in addition to the chemotherapeutic effect documented in FIG. 5, 3AC-induced enhanced-NK and -T cell activity is important for the survival benefit following tumor challenge, NSG mice (mice deficient of all lymphocyte lineages) were challenged.
To determine if T cells are required for the 3AC-mediated survival benefit, the same expirement using TcRa^−/− hosts that lack a TcR-ab^+ T cell compartment was repeated. […] To directly test the requirement for an intact NK cell compartment for 3AC-mediated increased survival after tumor challenge, the experiment as described in FIG. 6A were repeated challenging C57BL/6 hosts that were first depleted of
NK cells. Here, prior to tumor challenge, hosts were injected with either NK cell depleting anti-NK1.1 antibody (C57BL/6-DNK) or with antibody isotype control (C57BL/6-iso) (FIG. 6B).
The SHIP1 inhibitor 3AC was then tested in a genetic model in which the molecular target, SHIP1, was absent in a key target population of T cells, which are required for protection in the RMA-Rael lymphoma challenge model. […] Thus, SHIP inhibitor protection after tumor challenge is lost when the T cell compartment lacks the molecular target (SHIP1) in T cells.
There are two paralogs of SHIP: SHIP1 which is expressed in a limited range of tissues including hematopoietic cells, and SHIP2 which is expressed by a wide array of cell types. To determine if SHIP2 may also play a role in host defense against malignancy as described above tumor bearing mice were treated with small-molecule inhibitors against SHIP2 as well. […] Stem Cells. (2015); 33: 848-858; Hoekstra, E. et al., Lipid phosphatase SHIP2 functions as oncogene in colorectal cancer by regulating PKB activation. Oncotarget. (2016) 7: 73525-73540). Like 3AC, pan-SHIP1/2 inhibitors such as K118 are also cytotoxic for RMA-Rael cells in vitro. The pan SHIP1/2 inhibitory compounds K118 and K149 were compared to the SHIP1 selective compound 3AC.
Simultaneous inhibition of both SHIP1and SHIP2 may be deleterious to the immune response promoted by 3AC. […] In the study, the SHIP1 selective inhibitor 3AC that provides for protection after RMA-Rael challenge was simulataneously co-administered.

[2] = system: SHIP1/2; conditions: Brooks et al. 2015; Hoekstra et al. 2016; cited from earlier work
[3] = biological target: T1, SHIP2 (Homo sapiens, UniProt O15357); conditions: Suwa et al. 2009; cited from earlier work
T1 sequence (O15357 1-1258): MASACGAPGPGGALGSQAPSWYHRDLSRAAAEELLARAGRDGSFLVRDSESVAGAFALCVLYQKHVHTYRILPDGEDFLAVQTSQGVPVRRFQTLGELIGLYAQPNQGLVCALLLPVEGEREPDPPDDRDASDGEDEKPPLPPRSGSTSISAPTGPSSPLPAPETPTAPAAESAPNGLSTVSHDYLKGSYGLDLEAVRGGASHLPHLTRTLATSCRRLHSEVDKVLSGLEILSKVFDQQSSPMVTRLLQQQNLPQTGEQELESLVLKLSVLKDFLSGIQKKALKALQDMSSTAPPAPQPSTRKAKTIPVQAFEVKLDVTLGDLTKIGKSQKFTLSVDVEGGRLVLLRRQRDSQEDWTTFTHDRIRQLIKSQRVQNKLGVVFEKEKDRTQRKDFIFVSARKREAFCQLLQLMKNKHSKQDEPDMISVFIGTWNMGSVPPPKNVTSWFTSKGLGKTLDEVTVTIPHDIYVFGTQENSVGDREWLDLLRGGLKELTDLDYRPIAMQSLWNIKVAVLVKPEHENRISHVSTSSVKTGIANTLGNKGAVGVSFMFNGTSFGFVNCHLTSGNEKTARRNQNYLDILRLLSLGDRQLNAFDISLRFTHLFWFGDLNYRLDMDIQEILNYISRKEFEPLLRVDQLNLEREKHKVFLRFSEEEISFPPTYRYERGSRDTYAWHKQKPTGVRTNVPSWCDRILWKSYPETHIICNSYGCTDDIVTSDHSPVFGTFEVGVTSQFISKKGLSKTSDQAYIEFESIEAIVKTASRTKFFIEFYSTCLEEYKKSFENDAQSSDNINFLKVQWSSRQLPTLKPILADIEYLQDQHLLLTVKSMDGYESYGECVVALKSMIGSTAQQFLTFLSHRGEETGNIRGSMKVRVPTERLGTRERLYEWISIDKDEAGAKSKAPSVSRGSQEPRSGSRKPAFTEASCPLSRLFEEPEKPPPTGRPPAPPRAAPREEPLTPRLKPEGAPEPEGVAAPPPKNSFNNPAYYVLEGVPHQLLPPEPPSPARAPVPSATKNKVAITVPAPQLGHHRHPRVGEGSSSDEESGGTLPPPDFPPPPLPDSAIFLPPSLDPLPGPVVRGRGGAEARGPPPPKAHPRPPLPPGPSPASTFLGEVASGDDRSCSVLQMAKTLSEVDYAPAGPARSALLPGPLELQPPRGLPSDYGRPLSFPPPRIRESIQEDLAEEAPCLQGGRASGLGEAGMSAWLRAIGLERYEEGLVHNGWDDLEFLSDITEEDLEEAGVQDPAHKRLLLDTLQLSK

[4] = system: RMA-Rael cells; experiment: RMA-Rael viability following in vitro treatment; type: cell-based, mice; conditions: 24 h, doses given as 5-20 pM, vs solvent only
Source text: FIGS. 5A-5I show the effects of SHIP1 inhibitor as a chemotherapeutic. […] FIG. 5D and FIG. 5E show the representative histograms and box-and-whisker plots of FasL expression by NK cells from C56BL/6 (p=0.0002; Unpaired t test with Welch's correction) or RAG1−/− (p<0.0001; Mann-Whitney U test) tumor challenged, SHIP inhibitor or vehicle treated hosts. […] (NK cells p=0.0192; Unpaired t test with Welch's correction. T cells p=0.0659; Mann-Whitney U test). Additionally, FIGS. 5A-5G show the analysis by flow cytometry on day 3 after hosts receive SHIP inhibitor or vehicle for two consecutive days. NK cells are defined as NK1.1+CD3ε−. The graphs are representative of at least two independent experiments with at least four SHIP inhibitor and vehicle treated mice. […] Viability is expressed as frequency at a given concentration expressed as a percentage of solvent only treated cells. The kill curve summarizes pooled data from three independent experiments using six replicate wells/concentration with mean ±SEM indicated (n=18 per group. One-way ANOVA with Dunnett's multiple comparisons. 0 pM vs. 20 pM Adjusted p value =0.0001. 0 pM vs. 15 pM Adjusted p value =0.0001. 0 pM vs. 10 pM Adjusted p value =0.0001. 0 pM vs. 7.5 pM Adjusted p value =0.0001. 0 pM vs. 5 pM Adjusted p value =0.0001). […]

Structure (SMILES)	overall survival (protection) ([1]; FIG. 6H, vs vehicle)	SHIP1/2 inhibitory activity [2]	overall survival (protection) ([1]; FIG. 6I, alone vs vehicle)	overall survival (effect on protection by 3AC) ([1]; FIG. 6I, co-administered with 3AC)	selectivity for SHIP2 [3]	RMA-Rael viability (direct killing) [4]
CSc1ccc2c(c1)c(CCN)c(C)n2Cc1ccc(Cl)cc1.Cl [Compound K149, 2-[1-(4-chlorobenzyl)-2-methyl-5-(methylmercapto)-1H-3-yl] ethanaminium chloride]	no protection	pan-SHIP1/2 inhibitory activity				
C[C@H](NC(=O)c1sccc1OCc1ccc(Cl)cc1)c1ccccc1 [AS1949490]			no protection	completely abrogated the protective effect of 3AC	high degree of selectivity	
C[C@@]12CCC[C@H]1[C@@H]1CC[C@H]3C[C@@H](N)CC[C@]3(C)[C@H]1CC2.Cl [Compound K118, 3β-amino-5α-androstane hydrochloride]	no protection	pan-SHIP1/2 inhibitory activity				cytotoxic
